Laboratory results published in patent US20190298669A1 (priority 2018, published 2019).

Tested on: A/Mississippi/3/2001 H275Y mutant (H1N1)
Assay type: cell-based, influenza A virus

For `CCOC(=O)C1=C[C@@H](OC(CC)CC)[C@H](NC(C)=O)[C@@H](N)C1` [oseltamivir], the reduction of virus was 43%.
